Assay results from publication PMC6409085, “Three odorant-binding proteins are involved in the behavioral response of Sogatella furcifera to rice plant volatiles” (PeerJ, 2019).
Several values for one entry are separate records, joined by “and”; a condition that tells them apart may be missing. Equal entries are not always repeated.

Experiments:
[1] = target: SfurOBP1 (Sogatella furcifera, UniProt V5T8N5); assay: biochemical; type: binding; conditions: for Fluorescence competitive binding assay, fluorescence intensity: OBP1, three replicate columns
Chain of SfurOBP1 (V5T8N5 entry or part of it): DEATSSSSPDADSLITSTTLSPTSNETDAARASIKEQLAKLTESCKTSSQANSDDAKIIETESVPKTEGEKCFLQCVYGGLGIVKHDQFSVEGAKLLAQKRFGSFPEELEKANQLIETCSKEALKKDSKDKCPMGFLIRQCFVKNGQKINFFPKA
How it was run: (§1)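 In 50 mM Tris-HCl pH 7.4, odorants displace 1-NPN (2.0 µM) from 2.0 µM protein. Emission at 390–490 nm under 337 nm excitation is measured 2 min after competitor addition, in triplicate. Ki is obtained from IC50 and the 1-NPN dissociation constant.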

[2] = target: SfurOBP3 (Sogatella furcifera, UniProt V5T818); assay: biochemical; type: binding; conditions: for Fluorescence competitive binding assay, fluorescence intensity: OBP3, three replicate columns;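 for Fluorescence competitive binding assay, fluorescence intensity: competitor odorant at 2 to 20 µM with protein and 1-NPN both 2.0 µM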
Chain of SfurOBP3 (V5T818 entry or part of it): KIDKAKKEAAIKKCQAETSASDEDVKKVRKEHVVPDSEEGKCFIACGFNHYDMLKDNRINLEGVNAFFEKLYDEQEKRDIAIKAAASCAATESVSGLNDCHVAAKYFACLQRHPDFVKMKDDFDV
How it was run: as §1

[3] = target: SfurOBP11 (Sogatella furcifera, UniProt V5T6E3); assay: biochemical; type: binding
Chain of SfurOBP11 (V5T6E3 entry or part of it): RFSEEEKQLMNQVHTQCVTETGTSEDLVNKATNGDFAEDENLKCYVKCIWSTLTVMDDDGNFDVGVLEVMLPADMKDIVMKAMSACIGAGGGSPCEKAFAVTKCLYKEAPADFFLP
How it was run: as §1

[4] = target: SfurOBP2 (Sogatella furcifera, UniProt V5T759); assay: biochemical; type: binding
Chain of SfurOBP2 (V5T759 entry or part of it): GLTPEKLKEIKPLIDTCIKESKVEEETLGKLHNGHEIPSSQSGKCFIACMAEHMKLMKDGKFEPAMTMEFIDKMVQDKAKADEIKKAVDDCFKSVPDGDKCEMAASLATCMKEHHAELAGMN
How it was run: as §1

[5] = test system: S. furcifera adults; assay: Y-tube olfactometer behavioral trials; type: in vivo, Sogatella furcifera; conditions: odorant 50 µL/L vs hexane; adults
How it was run: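 Single S. furcifera adults (2 days post-emergence, starved 0.5 h) chose between odorant (100 µL of 50 µL/L on filter paper) and hexane control in a glass Y-tube, charcoal-filtered humidified air 300 mL/min per arm, 25 ± 1 °C, 50% RH. Choice scored if insect passed half an arm and stayed >1 min within 10 min; 45 insects per compound, chi-squared test.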
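Throughout, for Fluorescence competitive binding assay, fluorescence intensity: competitor odorant at 2 to 20 µM with protein and 1-NPN both 2.0 µM.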

**Q.** Which results are given for `CC1=CC[C@@H](C(C)(C)O)CC1` [α-terpineol]?
**A.** IC50 [1]: > 20 µM; Fluorescence competitive binding assay, fluorescence intensity ([1]; ligand concentration 2 (μM)): 6377 and 6063 and 6691; Fluorescence competitive binding assay, fluorescence intensity ([1]; ligand concentration 4 (μM)): 7679 and 7170 and 7304; Fluorescence competitive binding assay, fluorescence intensity ([1]; ligand concentration 6 (μM)): 7149 and 7127 and 7171; Fluorescence competitive binding assay, fluorescence intensity ([1]; ligand concentration 8 (μM)): 6956 and 7151 and 7930; Fluorescence competitive binding assay, fluorescence intensity ([1]; ligand concentration 10 (μM)): 8380 and 7109 and 7555; Fluorescence competitive binding assay, fluorescence intensity ([1]; ligand concentration 12 (μM)): 7012 and 7971 and 7255; Fluorescence competitive binding assay, fluorescence intensity ([1]; ligand concentration 14 (μM)): 6581 and 7020 and 7628; Fluorescence competitive binding assay, fluorescence intensity ([1]; ligand concentration 16 (μM)): 6623 and 7749 and 6480; Fluorescence competitive binding assay, fluorescence intensity ([1]; ligand concentration 18 (μM)): 7107 and 7324 and 6847; Fluorescence competitive binding assay, fluorescence intensity ([1]; ligand concentration 20 (μM)): 6572 and 7380 and 8412; IC50 [2]: 13.6 µM; Fluorescence competitive binding assay, fluorescence intensity ([2]; ligand concentration 2): 41927 and 42538 and 43146; Fluorescence competitive binding assay, fluorescence intensity ([2]; ligand concentration 4): 40833 and 40011 and 41655; Fluorescence competitive binding assay, fluorescence intensity ([2]; ligand concentration 6): 42160 and 41392 and 42949; Fluorescence competitive binding assay, fluorescence intensity ([2]; ligand concentration 8): 37611 and 37369 and 39854; Fluorescence competitive binding assay, fluorescence intensity ([2]; ligand concentration 10): 32220 and 32701 and 33181; Fluorescence competitive binding assay, fluorescence intensity ([2]; ligand concentration 12): 30392 and 29567 and 30934; Fluorescence competitive binding assay, fluorescence intensity ([2]; ligand concentration 14): 29784 and 30310 and 29247; Fluorescence competitive binding assay, fluorescence intensity ([2]; ligand concentration 16): 24410 and 25726 and 27469; Fluorescence competitive binding assay, fluorescence intensity ([2]; ligand concentration 18): 26293 and 25033 and 26983; Fluorescence competitive binding assay, fluorescence intensity ([2]; ligand concentration 20): 28495 and 26490 and 25496; binding affinity to SfurOBP3 (in words) ([2]; SfurOBP3): high binding affinities; IC50 [3]: > 20 µM; Fluorescence intensity, fluorescence competitive binding assay, OBP11 ([3]; ligand concentration 2, replicate 1): 29252; Fluorescence intensity, fluorescence competitive binding assay, OBP11 ([3]; ligand concentration 2, replicate 2): 30685; Fluorescence intensity, fluorescence competitive binding assay, OBP11 ([3]; ligand concentration 2, replicate 3): 32118; Fluorescence intensity, fluorescence competitive binding assay, OBP11 ([3]; ligand concentration 4, replicate 1): 28869; Fluorescence intensity, fluorescence competitive binding assay, OBP11 ([3]; ligand concentration 4, replicate 2): 31369; Fluorescence intensity, fluorescence competitive binding assay, OBP11 ([3]; ligand concentration 4, replicate 3): 30942; Fluorescence intensity, fluorescence competitive binding assay, OBP11 ([3]; ligand concentration 6, replicate 1): 28105; Fluorescence intensity, fluorescence competitive binding assay, OBP11 ([3]; ligand concentration 6, replicate 2): 27021; Fluorescence intensity, fluorescence competitive binding assay, OBP11 ([3]; ligand concentration 6, replicate 3): 30576; Fluorescence intensity, fluorescence competitive binding assay, OBP11 ([3]; ligand concentration 8, replicate 1): 25898; Fluorescence intensity, fluorescence competitive binding assay, OBP11 ([3]; ligand concentration 8, replicate 2): 26158; Fluorescence intensity, fluorescence competitive binding assay, OBP11 ([3]; ligand concentration 8, replicate 3): 28412; Fluorescence intensity, fluorescence competitive binding assay, OBP11 ([3]; ligand concentration 10, replicate 1): 27115; Fluorescence intensity, fluorescence competitive binding assay, OBP11 ([3]; ligand concentration 10, replicate 2): 24221; Fluorescence intensity, fluorescence competitive binding assay, OBP11 ([3]; ligand concentration 10, replicate 3): 26039; Fluorescence intensity, fluorescence competitive binding assay, OBP11 ([3]; ligand concentration 12, replicate 1): 23153; Fluorescence intensity, fluorescence competitive binding assay, OBP11 ([3]; ligand concentration 12, replicate 2): 22497; Fluorescence intensity, fluorescence competitive binding assay, OBP11 ([3]; ligand concentration 12, replicate 3): 22406; Fluorescence intensity, fluorescence competitive binding assay, OBP11 ([3]; ligand concentration 14, replicate 1): 22371; Fluorescence intensity, fluorescence competitive binding assay, OBP11 ([3]; ligand concentration 14, replicate 2): 22254; Fluorescence intensity, fluorescence competitive binding assay, OBP11 ([3]; ligand concentration 14, replicate 3): 22487; Fluorescence intensity, fluorescence competitive binding assay, OBP11 ([3]; ligand concentration 16, replicate 1): 19119; Fluorescence intensity, fluorescence competitive binding assay, OBP11 ([3]; ligand concentration 16, replicate 2): 17607; Fluorescence intensity, fluorescence competitive binding assay, OBP11 ([3]; ligand concentration 16, replicate 3): 18419; Fluorescence intensity, fluorescence competitive binding assay, OBP11 ([3]; ligand concentration 18, replicate 1): 25701; Fluorescence intensity, fluorescence competitive binding assay, OBP11 ([3]; ligand concentration 18, replicate 2): 25030; Fluorescence intensity, fluorescence competitive binding assay, OBP11 ([3]; ligand concentration 18, replicate 3): 24854; Fluorescence intensity, fluorescence competitive binding assay, OBP11 ([3]; ligand concentration 20, replicate 1): 25268; Fluorescence intensity, fluorescence competitive binding assay, OBP11 ([3]; ligand concentration 20, replicate 2): 25350; Fluorescence intensity, fluorescence competitive binding assay, OBP11 ([3]; ligand concentration 20, replicate 3): 25312; IC50 [4]: > 20 µM; Fluorescence competitive binding assay, OBP2 (raw fluorescence reading) ([4]; ligand concentration 2 (unit not given), replicate column 1 of 3): 18212; Fluorescence competitive binding assay, OBP2 (raw fluorescence reading) ([4]; ligand concentration 2 (unit not given), replicate column 2 of 3): 17771; Fluorescence competitive binding assay, OBP2 (raw fluorescence reading) ([4]; ligand concentration 2 (unit not given), replicate column 3 of 3): 19569; Fluorescence competitive binding assay, OBP2 (raw fluorescence reading) ([4]; ligand concentration 4 (unit not given), replicate column 1 of 3): 20390; Fluorescence competitive binding assay, OBP2 (raw fluorescence reading) ([4]; ligand concentration 4 (unit not given), replicate column 2 of 3): 18924; Fluorescence competitive binding assay, OBP2 (raw fluorescence reading) ([4]; ligand concentration 4 (unit not given), replicate column 3 of 3): 19735; Fluorescence competitive binding assay, OBP2 (raw fluorescence reading) ([4]; ligand concentration 6 (unit not given), replicate column 1 of 3): 19485; Fluorescence competitive binding assay, OBP2 (raw fluorescence reading) ([4]; ligand concentration 6 (unit not given), replicate column 2 of 3): 20387; Fluorescence competitive binding assay, OBP2 (raw fluorescence reading) ([4]; ligand concentration 6 (unit not given), replicate column 3 of 3): 20572; Fluorescence competitive binding assay, OBP2 (raw fluorescence reading) ([4]; ligand concentration 8 (unit not given), replicate column 1 of 3): 16903; Fluorescence competitive binding assay, OBP2 (raw fluorescence reading) ([4]; ligand concentration 8 (unit not given), replicate column 2 of 3): 17555; Fluorescence competitive binding assay, OBP2 (raw fluorescence reading) ([4]; ligand concentration 8 (unit not given), replicate column 3 of 3): 17959; Fluorescence competitive binding assay, OBP2 (raw fluorescence reading) ([4]; ligand concentration 10 (unit not given), replicate column 1 of 3): 16415; Fluorescence competitive binding assay, OBP2 (raw fluorescence reading) ([4]; ligand concentration 10 (unit not given), replicate column 2 of 3): 15491; Fluorescence competitive binding assay, OBP2 (raw fluorescence reading) ([4]; ligand concentration 10 (unit not given), replicate column 3 of 3): 17367; Fluorescence competitive binding assay, OBP2 (raw fluorescence reading) ([4]; ligand concentration 12 (unit not given), replicate column 1 of 3): 14309; Fluorescence competitive binding assay, OBP2 (raw fluorescence reading) ([4]; ligand concentration 12 (unit not given), replicate column 2 of 3): 15826; Fluorescence competitive binding assay, OBP2 (raw fluorescence reading) ([4]; ligand concentration 12 (unit not given), replicate column 3 of 3): 15705; Fluorescence competitive binding assay, OBP2 (raw fluorescence reading) ([4]; ligand concentration 14 (unit not given), replicate column 1 of 3): 15282; Fluorescence competitive binding assay, OBP2 (raw fluorescence reading) ([4]; ligand concentration 14 (unit not given), replicate column 2 of 3): 15181; Fluorescence competitive binding assay, OBP2 (raw fluorescence reading) ([4]; ligand concentration 14 (unit not given), replicate column 3 of 3): 14363; Fluorescence competitive binding assay, OBP2 (raw fluorescence reading) ([4]; ligand concentration 16 (unit not given), replicate column 1 of 3): 13073; Fluorescence competitive binding assay, OBP2 (raw fluorescence reading) ([4]; ligand concentration 16 (unit not given), replicate column 2 of 3): 13018; Fluorescence competitive binding assay, OBP2 (raw fluorescence reading) ([4]; ligand concentration 16 (unit not given), replicate column 3 of 3): 13539; Fluorescence competitive binding assay, OBP2 (raw fluorescence reading) ([4]; ligand concentration 18 (unit not given), replicate column 1 of 3): 15519; Fluorescence competitive binding assay, OBP2 (raw fluorescence reading) ([4]; ligand concentration 18 (unit not given), replicate column 2 of 3): 15960; Fluorescence competitive binding assay, OBP2 (raw fluorescence reading) ([4]; ligand concentration 18 (unit not given), replicate column 3 of 3): 15297; Fluorescence competitive binding assay, OBP2 (raw fluorescence reading) ([4]; ligand concentration 20 (unit not given), replicate column 1 of 3): 14913; Fluorescence competitive binding assay, OBP2 (raw fluorescence reading) ([4]; ligand concentration 20 (unit not given), replicate column 2 of 3): 14580; Fluorescence competitive binding assay, OBP2 (raw fluorescence reading) ([4]; ligand concentration 20 (unit not given), replicate column 3 of 3): 12894; number of insects choosing hexane arm [5]: 14; number of insects choosing volatilies arm [5]: 11; number of insects failed (no choice) [5]: 15
